Assay results: the kinase profiling compilation of Christmann-Franck et al. (2016)

Tests used:
Assay in all cases: radiometric filter-binding kinase assay
SYK (human) = SYK (human) (UniProt P43405); settings: compound 10.0 µM
PHKG1 (human) = PHKG1 (human) (UniProt Q16816); settings: compound 10.0 µM
RPS6KA3 KD1 KD2 (human) = RPS6KA3 KD1 KD2 (human) (UniProt P51812)
INSRR (human) = INSRR (human) (UniProt P14616)
INSRR (human), sequence (P14616 whole entry, looked up): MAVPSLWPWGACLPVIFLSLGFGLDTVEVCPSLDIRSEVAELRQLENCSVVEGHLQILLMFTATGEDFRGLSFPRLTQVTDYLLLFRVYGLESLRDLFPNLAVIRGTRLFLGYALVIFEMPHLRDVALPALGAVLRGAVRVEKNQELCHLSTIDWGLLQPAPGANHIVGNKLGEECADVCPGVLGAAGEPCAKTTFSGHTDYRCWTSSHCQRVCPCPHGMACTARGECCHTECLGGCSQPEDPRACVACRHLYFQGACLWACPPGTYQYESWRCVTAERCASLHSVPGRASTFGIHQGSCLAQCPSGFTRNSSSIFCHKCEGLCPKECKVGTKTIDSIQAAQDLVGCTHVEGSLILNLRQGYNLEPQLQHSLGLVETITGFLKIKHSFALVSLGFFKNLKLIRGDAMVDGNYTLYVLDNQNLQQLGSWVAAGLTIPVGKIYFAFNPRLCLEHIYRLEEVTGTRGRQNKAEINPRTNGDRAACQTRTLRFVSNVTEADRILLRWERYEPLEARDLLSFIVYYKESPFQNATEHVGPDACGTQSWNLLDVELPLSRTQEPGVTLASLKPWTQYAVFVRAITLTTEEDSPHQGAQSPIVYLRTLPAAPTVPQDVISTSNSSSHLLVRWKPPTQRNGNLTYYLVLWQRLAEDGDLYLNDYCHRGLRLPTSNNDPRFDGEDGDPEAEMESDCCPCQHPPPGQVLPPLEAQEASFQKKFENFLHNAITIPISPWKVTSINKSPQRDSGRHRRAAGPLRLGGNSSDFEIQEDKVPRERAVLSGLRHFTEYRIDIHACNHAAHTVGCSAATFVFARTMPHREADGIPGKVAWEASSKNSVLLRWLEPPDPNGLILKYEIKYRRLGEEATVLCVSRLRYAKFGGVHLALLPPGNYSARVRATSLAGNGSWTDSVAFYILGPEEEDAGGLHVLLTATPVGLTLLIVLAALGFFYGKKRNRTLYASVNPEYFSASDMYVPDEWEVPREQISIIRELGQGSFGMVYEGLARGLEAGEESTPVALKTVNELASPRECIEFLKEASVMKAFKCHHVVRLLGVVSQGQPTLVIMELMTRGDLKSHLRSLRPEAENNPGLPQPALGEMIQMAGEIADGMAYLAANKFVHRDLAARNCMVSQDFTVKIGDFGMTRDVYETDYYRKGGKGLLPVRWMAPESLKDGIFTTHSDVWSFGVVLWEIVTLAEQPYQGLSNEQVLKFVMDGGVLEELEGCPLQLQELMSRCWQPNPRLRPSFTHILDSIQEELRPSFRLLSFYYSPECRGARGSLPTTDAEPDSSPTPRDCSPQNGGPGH

RPS6KA3 KD1 KD2 (human), sequence (P51812 whole entry, looked up): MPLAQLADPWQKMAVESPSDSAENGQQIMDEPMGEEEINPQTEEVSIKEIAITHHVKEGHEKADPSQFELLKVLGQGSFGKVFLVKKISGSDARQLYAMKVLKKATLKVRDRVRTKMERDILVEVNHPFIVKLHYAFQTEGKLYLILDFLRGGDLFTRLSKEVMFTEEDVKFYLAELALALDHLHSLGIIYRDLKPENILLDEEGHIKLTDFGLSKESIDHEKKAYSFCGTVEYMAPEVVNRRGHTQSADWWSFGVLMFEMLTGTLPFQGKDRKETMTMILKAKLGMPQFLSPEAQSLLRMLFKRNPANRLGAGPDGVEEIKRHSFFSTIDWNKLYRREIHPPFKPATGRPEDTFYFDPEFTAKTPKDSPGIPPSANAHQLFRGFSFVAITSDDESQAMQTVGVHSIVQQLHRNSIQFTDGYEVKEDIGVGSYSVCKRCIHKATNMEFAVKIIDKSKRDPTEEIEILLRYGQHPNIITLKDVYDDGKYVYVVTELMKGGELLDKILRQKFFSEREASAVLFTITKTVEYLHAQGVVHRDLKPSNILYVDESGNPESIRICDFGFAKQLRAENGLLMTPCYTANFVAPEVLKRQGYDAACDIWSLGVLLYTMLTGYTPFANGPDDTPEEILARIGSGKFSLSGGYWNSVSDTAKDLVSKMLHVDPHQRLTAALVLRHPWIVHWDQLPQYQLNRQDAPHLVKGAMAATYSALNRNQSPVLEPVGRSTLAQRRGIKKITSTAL
PHKG1 (human), sequence (Q16816 whole entry, looked up): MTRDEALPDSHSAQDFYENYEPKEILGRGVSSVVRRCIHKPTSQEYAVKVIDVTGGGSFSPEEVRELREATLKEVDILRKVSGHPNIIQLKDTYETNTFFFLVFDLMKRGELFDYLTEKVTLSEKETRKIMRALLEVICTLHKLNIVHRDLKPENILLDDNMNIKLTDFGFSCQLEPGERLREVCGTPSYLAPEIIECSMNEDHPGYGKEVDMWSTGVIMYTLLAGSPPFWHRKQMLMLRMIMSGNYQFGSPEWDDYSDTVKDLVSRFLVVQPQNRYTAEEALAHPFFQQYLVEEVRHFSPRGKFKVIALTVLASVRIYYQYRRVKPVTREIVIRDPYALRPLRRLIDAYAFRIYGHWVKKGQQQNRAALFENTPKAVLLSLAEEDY

Row | residual activity (SYK (human)) [%] | residual activity (PHKG1 (human)) [%] | residual activity (RPS6KA3 KD1 KD2 (human); compound 10.0 µM) [%] | residual activity (RPS6KA3 KD1 KD2 (human); compound 100.0 µM) [%] | residual activity (INSRR (human); compound 10.0 µM) [%] | residual activity (INSRR (human); compound 100.0 µM) [%] | residual activity (INSRR (human); compound 1.0 µM) [%] | SMILES
1 | 100 | 54 | 50 | 10 | 40 | 22 | – | Cc1nc(N)sc1-c1csc(Nc2cccnc2)n1
2 | – | – | – | – | 28 | – | 55 | O=C1c2ccccc2-c2n[nH]c3cccc1c23
